In patent US20090281099A1, “SUBSTITUTED PYRAZINONE DERIVATIVES FOR USE AS A MEDICINE” (priority 2006, published 2009):

Key:
[1] = target: T1, hα2A receptor (Homo sapiens, UniProt P08913); test: Radioligand binding experiment for hα2A receptor ([3H]-raulwolscine, CHO cell membranes); details: [3H]raulwolscine 1 nM, membranes of CHO cells transfected with human α2A receptor; read-out: h-α2A pIC50 (converted)
T1 construct: expressed in transfected cells
T1 sequence (P08913 1-465): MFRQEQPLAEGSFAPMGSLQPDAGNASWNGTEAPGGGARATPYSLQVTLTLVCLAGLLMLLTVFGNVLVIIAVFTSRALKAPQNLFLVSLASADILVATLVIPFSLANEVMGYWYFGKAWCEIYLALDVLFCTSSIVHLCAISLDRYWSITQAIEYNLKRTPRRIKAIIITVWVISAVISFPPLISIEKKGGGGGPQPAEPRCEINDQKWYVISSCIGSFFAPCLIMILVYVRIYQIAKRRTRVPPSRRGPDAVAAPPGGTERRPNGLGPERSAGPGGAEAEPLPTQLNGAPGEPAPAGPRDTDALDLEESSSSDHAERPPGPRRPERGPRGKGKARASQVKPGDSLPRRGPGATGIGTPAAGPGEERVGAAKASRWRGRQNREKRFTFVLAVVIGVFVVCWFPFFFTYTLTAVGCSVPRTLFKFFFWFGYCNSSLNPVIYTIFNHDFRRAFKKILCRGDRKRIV

[2] = target: T2, hα2C receptor (Homo sapiens, UniProt P18825); test: Radioligand binding experiment for α2C-adrenoceptor ([3H]-raulwolscine, CHO cell membranes); details: [3H]raulwolscine 1 nM, membranes of CHO cells transfected with human α2C receptor; read-out: h-α2C pIC50 (converted)
T2 construct: expressed in transfected cells
T2 sequence (P18825 1-462): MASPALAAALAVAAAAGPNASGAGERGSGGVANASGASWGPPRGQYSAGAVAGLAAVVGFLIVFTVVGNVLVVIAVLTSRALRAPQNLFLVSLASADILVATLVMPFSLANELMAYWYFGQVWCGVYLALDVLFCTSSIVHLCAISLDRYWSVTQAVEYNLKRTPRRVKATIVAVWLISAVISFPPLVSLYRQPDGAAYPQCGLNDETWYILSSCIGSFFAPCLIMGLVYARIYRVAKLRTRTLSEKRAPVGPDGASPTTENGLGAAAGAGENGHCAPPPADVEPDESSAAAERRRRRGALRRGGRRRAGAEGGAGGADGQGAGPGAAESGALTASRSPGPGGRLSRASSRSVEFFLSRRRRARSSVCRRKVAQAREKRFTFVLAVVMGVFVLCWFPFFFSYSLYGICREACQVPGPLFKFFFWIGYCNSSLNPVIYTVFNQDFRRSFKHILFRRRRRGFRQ

[3] = target: T3, 5HT-Transporter (Homo sapiens, UniProt P31645); test: Binding experiment for the 5HT-transporter ([3H]paroxetine, human platelet membranes); details: [3H]paroxetine 0.5 nM, read-out: h-5HTT pIC50 (converted)
T3 construct: Human platelet membranes (Oceanix Biosciences Corporation, Hanover, Md., USA) were thawed; tissue Oceanix Biosciences Corporation; host or cells: human platelet membranes
T3 sequence (P31645 whole entry): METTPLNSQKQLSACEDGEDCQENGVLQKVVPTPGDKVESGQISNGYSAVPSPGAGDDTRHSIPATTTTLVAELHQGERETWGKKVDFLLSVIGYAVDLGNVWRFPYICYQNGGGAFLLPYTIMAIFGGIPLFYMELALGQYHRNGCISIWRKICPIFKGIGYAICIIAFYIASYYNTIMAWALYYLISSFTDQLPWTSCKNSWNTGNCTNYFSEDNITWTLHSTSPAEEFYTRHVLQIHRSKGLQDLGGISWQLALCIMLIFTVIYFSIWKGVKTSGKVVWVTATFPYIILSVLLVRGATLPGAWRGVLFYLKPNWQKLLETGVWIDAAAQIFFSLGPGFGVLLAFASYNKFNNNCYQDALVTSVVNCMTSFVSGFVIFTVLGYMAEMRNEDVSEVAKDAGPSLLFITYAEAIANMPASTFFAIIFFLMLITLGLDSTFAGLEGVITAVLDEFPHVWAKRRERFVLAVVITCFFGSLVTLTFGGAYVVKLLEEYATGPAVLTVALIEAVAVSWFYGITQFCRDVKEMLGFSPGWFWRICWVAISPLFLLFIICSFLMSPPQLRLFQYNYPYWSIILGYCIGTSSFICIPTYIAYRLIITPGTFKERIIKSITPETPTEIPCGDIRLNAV

| SMILES | IC50 [1] | IC50 [2] | IC50 [3] |
| --- | --- | --- | --- |
| CCCn1ccnc(NC2CCN(CCOc3ccccc3)CC2)c1=O [Compound 5-2] | 100 nM | 15.8 nM | > 10000 nM |
| O=c1c(NC2CCN(CCOc3ccccc3)CC2)nccn1CC1CCCCC1 [Compound 5-3] | 251 nM | 25.1 nM | 1000 nM |
| CC(=O)Cn1ccnc(NC2CCN(CCOc3ccccc3)CC2)c1=O [Compound 5-4] | 126 nM | 31.6 nM | > 10000 nM |
| CC(C)(C)C(=O)Cn1ccnc(NC2CCN(CCOc3ccccc3)CC2)c1=O [Compound 5-5] | 158 nM | 7.94 nM | > 10000 nM |
| O=c1c(NC2CCN(CCOc3ccccc3)CC2)nccn1CC1CCCCO1 (stereo not drawn) [Compound 6-1] | 501 nM | 39.8 nM | > 10000 nM |
| O=c1c(NC2CCN(CCOc3ccccc3)CC2)nccn1Cc1ccncc1 [Compound 6-2] | 398 nM | 39.8 nM | > 10000 nM |
| O=c1c(NC2CCN(CCOc3ccccc3)CC2)nccn1Cc1ccc2ccccc2n1 [Compound 6-3] | 200 nM | 7.94 nM | 2510 nM |
| NCc1ccc(Cn2ccnc(N3CCN(CCOc4ccc(F)cc4)CC3)c2=O)cc1 [Compound 7-1] | 158 nM | 63.1 nM | 1260 nM |
| CN(C)C(=O)Cn1ccnc(N2CCN(CCOc3ccc(F)cc3)CC2)c1=O [Compound 7-2] | 316 nM | 501 nM | > 10000 nM |
| CC(C)(C)OC(=O)NCc1ccc(Cn2ccnc(N3CCN(CCOc4ccc(F)cc4)CC3)c2=O)cc1 [Compound 7-3] | 398 nM | 251 nM | 2000 nM |
| O=c1c(N2CCN(CCOc3ccc(F)cc3)CC2)nccn1CCN1CCCCC1 [Compound 8-1] | 631 nM | 100 nM | 7940 nM |
| O=C1c2ccccc2C(=O)N1CCCn1ccnc(N2CCN(CCOc3ccc(F)cc3)CC2)c1=O [Compound 8-2] | 100 nM | 39.8 nM | 631 nM |
| COCCCn1ccnc(N2CCN(CCOc3ccc(F)cc3)CC2)c1=O [Compound 9-1] | 1260 nM | 1000 nM | > 10000 nM |
| O=c1c(N2CCN(CCOc3ccc(F)cc3)CC2)nccn1CCOc1ccccc1 [Compound 9-2] | 200 nM | 251 nM | 2510 nM |
| O=c1c(N2CCN(CCOc3ccc(F)cc3)CC2)nccn1CCOCc1ccccc1 [Compound 9-3] | 501 nM | 251 nM | 3980 nM |
| O=c1c(N2CCN(CCOc3ccc(F)cc3)CC2)nccn1Cc1ccccc1 [Compound 11-1] | 100 nM | 200 nM | > 10000 nM |
| O=c1c(N2CCN(CCOc3ccc(F)cc3)CC2)nccn1CCCc1ccccc1 [Compound 11-2] | 251 nM | 631 nM | 2000 nM |
| O=c1c(N2CCN(CCOc3ccc(F)cc3)CC2)nccn1CC(c1ccccc1)c1ccccc1 [Compound 11-3] | 251 nM | 316 nM | 7940 nM |
| O=c1c(N2CCN(CCOc3ccc(F)cc3)CC2)nccn1C/C=C/c1ccccc1 [Compound 11-4] | 251 nM | 200 nM | 1580 nM |
| O=C(Cn1ccnc(N2CCN(CCOc3ccc(F)cc3)CC2)c1=O)c1ccccc1 [Compound 11-5] | 158 nM | 158 nM | 3980 nM |
| O=c1c(N2CCN(CCOc3ccc(F)cc3)CC2)nccn1Cc1ccc(-c2ccccc2)cc1 [Compound 11-6] | 316 nM | 251 nM | 1000 nM |
| O=c1c(N2CCN(CCOc3ccc(F)cc3)CC2)nccn1Cc1ccc2ccccc2c1 [Compound 11-8] | 126 nM | 126 nM | 2000 nM |
| O=c1c(N2CCN(CCOc3ccc(F)cc3)CC2)nccn1Cc1ccco1 [Compound 12-1] | 200 nM | 251 nM | > 10000 nM |
| O=c1c(N2CCN(CCOc3ccc(F)cc3)CC2)nccn1Cc1ccc(Cl)s1 [Compound 12-2] | 200 nM | 79.4 nM | 6310 nM |
